Calls of active or inactive are those of the source.

By IC50 is commonly meant the midpoint of a concentration-inhibition curve. Broadly, the AC50 is the concentration at which the activity in the assay is half-maximal. The EC50 is the concentration that produces a half-maximal response. A word on the CC50: it is the concentration at which the toxic effect on the cells reaches its halfway point.

One assay deals with T1, Aminopeptidase N (Plasmodium falciparum FcB1/Columbia, UniProt O96935).
T1 sequence (O96935 whole entry): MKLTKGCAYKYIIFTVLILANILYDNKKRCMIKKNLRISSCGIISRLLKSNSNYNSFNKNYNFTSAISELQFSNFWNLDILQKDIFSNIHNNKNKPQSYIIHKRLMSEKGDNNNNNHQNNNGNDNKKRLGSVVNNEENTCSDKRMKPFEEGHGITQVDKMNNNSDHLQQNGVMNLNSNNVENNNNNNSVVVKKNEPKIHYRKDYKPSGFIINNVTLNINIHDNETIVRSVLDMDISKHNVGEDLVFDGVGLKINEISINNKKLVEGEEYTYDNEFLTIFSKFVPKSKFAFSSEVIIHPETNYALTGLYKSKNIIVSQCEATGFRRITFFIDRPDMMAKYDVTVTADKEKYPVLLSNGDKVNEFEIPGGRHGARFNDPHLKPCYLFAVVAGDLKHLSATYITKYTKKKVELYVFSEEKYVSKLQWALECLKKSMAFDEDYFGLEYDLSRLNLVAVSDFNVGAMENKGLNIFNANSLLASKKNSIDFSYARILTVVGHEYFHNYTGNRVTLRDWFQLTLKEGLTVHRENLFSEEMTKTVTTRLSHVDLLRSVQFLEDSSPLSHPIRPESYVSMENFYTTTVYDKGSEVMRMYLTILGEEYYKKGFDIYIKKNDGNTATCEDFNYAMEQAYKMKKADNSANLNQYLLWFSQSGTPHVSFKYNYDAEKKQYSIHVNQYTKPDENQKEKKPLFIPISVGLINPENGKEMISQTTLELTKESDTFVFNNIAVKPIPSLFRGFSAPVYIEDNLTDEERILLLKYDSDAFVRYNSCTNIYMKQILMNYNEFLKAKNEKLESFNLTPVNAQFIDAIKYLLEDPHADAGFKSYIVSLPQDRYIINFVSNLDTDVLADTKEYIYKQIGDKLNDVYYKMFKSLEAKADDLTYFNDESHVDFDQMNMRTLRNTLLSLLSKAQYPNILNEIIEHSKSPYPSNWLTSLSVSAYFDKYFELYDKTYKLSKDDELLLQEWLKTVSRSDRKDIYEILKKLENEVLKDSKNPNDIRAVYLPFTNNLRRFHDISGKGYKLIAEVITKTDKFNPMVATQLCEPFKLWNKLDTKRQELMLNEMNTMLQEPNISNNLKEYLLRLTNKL
In words: malaria alanyl aminopeptidase activity blockers – biochemical, fluorogenic H-Leu-NHMec substrate, 1536-well (AID 1445). Further details: species or system Plasmodium falciparum 3D7, 3D7.

The target in assay [1] is Bifunctional protein GlmU (Mycobacterium tuberculosis, UniProt P9WMN3). Description: Inhibitors of Mycobacterial Glucosamine-1-phosphate acetyl transferase (GlmU). Secondary screen. Further details: species or system Mycobacterium tuberculosis H37Rv.
The target in assay [2] is Induced myeloid leukemia cell differentiation protein Mcl-1 (Homo sapiens, UniProt Q07820). Format: functional.
Assay [3] has as its target DNA (cytosine-5)-methyltransferase 1 (Homo sapiens, UniProt P26358). Description: inhibition of DNA methylation by DNMT1 – biochemical, fluorescent molecular beacon, confirmation (AID 602386). Format: functional.
Assay [4] addresses 26S proteasome non-ATPase regulatory subunit 14 (Homo sapiens, UniProt O00487). Description: inhibition of proteasome subunit RPN11 – biochemical, fluorescence polarization, uHTS hits, confirmation (AID 602368). Format: functional. In general terms: Polarisation of emitted light reports the rotation of a fluorescent probe.
In assay [5] the target is 72 kDa type IV collagenase (Homo sapiens, UniProt P08253). Description: Dose Response validation of uHTS RPN11 inhibitor hits using a MMP-2 Fluorescence assay. Format: functional.
For the next assay, the target named is Prothrombin (Bos taurus, UniProt P00735). Description: thrombin protease inhibitors – biochemical, fluorescence polarization, uHTS hits, dose response (AID 602369). In kind it is functional.
In assay [6] the target is T2, Rac GTPase-activating protein 1 (Homo sapiens, UniProt Q9H0H5).
T2 sequence (Q9H0H5 whole entry): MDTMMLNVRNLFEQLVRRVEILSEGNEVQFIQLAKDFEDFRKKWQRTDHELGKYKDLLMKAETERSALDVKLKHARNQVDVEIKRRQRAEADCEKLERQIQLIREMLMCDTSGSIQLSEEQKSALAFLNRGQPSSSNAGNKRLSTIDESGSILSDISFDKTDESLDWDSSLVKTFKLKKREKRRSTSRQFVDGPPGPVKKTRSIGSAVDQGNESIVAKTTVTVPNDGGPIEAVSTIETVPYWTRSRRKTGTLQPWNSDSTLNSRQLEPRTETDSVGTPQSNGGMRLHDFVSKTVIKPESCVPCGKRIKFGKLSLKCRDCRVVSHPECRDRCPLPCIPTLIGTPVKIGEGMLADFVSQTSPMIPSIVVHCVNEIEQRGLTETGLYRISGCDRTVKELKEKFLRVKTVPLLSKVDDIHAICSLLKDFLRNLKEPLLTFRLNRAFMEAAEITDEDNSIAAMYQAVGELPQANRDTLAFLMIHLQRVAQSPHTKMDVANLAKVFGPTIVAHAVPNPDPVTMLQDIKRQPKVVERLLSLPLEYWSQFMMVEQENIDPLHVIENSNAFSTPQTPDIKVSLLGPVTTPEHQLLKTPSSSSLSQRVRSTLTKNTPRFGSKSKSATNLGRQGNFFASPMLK
In words: blockers of MgcRacGAP-driven Rac1 GTP hydrolysis – biochemical, ADP Hunter fluorescence, primary and confirmatory, confirmation (AID 624330). In kind it is functional.

Assay [7] addresses T3, Histone-lysine N-methyltransferase NSD2 (Homo sapiens, UniProt O96028).
T3 sequence (O96028 whole entry): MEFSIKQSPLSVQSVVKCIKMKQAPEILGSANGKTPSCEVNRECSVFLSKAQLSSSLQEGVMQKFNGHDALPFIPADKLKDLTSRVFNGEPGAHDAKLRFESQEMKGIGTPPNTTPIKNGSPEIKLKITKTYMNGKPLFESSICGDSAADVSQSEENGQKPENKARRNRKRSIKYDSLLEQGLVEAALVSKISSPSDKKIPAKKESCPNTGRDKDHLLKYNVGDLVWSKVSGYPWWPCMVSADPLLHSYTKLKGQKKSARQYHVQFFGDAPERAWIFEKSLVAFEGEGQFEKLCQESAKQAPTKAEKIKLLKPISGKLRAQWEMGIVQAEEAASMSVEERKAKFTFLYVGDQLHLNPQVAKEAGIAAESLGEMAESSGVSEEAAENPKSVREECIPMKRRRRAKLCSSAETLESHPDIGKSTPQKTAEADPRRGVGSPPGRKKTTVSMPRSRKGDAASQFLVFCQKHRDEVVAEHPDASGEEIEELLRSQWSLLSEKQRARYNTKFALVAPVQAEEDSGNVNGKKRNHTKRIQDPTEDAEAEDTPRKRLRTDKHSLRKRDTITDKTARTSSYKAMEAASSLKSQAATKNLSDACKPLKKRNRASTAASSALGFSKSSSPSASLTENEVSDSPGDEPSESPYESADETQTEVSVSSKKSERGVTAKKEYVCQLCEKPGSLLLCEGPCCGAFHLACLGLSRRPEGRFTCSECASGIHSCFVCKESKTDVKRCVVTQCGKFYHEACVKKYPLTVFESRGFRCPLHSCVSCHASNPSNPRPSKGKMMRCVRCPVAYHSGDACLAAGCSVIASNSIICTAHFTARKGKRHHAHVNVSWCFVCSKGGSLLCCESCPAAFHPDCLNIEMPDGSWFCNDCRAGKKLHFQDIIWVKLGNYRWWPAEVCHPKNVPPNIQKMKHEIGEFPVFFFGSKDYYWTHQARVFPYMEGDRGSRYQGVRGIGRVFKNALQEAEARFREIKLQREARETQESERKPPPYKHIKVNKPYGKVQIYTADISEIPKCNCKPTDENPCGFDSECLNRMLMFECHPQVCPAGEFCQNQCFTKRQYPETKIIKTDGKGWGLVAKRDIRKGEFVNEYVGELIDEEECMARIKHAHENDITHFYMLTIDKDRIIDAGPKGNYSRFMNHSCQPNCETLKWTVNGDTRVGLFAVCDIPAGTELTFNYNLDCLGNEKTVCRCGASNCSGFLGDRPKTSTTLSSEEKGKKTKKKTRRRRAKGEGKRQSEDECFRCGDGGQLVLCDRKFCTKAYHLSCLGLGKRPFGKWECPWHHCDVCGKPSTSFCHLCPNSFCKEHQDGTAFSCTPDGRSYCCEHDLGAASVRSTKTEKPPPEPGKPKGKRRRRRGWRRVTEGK
Format: biochemical.

Assay [8] can be described thus: viability of PTEN-deleted HCT116 cells – cell-based, HCT116 PTEN knockout, dose response (AID 1047).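 Further: HCT116 colon tumor cells with PTEN knocked out; cells exposed to compound for 60 hours before readout; potency for loss of cell viability measured by luminescence.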 Format: functional.
The nature of assay [9]: viability of HCT116 lacking mutant beta-catenin – cell-based, human colon tumor, dose response (AID 1045).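 Further: HCT116 colon tumor cells with beta catenin knocked out; cells exposed to compound for 60 hours.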 In kind it is functional.
A short description of assay [10]: mitochondrial function rescue without frataxin homolog – Friedreich's ataxia, plus single-dose screen, dose response (AID 1465).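 Further: yeast depleted of Yfh1p frataxin homolog grown on glycerol needing respiration; WST-1 tetrazolium dye reduction as measure of cellular dehydrogenase metabolic activity.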 In kind it is functional.
The next assay concerns the target Nonstructural protein 1 (Influenza A virus, UniProt Q194T2). In kind it is functional, Influenza A virus (A/California/07/2009(H1N1)).
Assay [11] in a line: viability loss in HeLa cells – cytotoxicity control for MgcRacGAP inhibitor project, dose response (AID 624300). Format: functional.
Assay [12] in a line: viability loss in THP-1 monocytes – THP-1 cells, cytotoxicity control for Vif-APOBEC3G degradation inhibitor project, dose response (AID 1117359). In kind it is functional. Particulars: THP-1.
The target in assay [13] is Glutathione-S-transferase (Schistosoma japonicum, UniProt Q26513). Description: GST-antibody interaction or FRET quenching – biochemical, TR-FRET, artefact control for Vif-APOBEC3G degradation inhibitor project, dose response (AID 1117362). In kind it is functional.
For assay [14], the target named is Signal transducer and activator of transcription 1-alpha/beta (Homo sapiens, UniProt P42224). In words: inhibition of STAT1 reporter activity – cell-based, NIH 3T3, luciferase reporter, dose response (AID 1396). Format: functional.
Assay [15] addresses RNA-editing ligase 1, mitochondrial (Trypanosoma brucei brucei, UniProt P86926). Description: inhibition of trypanosome RNA editing ligase – biochemical, fluorescence, Trypanosoma brucei, dose response (AID 1117295). In kind it is functional.
The nature of assay [16]: growth inhibition of yeast DHODH-expressing 3D7 parasites – SYBR Green, dry powder samples, dose response (AID 1159570).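 Further: parasite growth measured after 72 hours of compound exposure.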 In kind it is functional, cell-based.
Assay [17] can be described thus: toxicity to human HepG2 hepatoma cells – cell-based, plate reader, dry powder samples, cytotoxicity control, dose response (AID 1159569).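 Further: inhibitor potency with signal falling toward the positive control level.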 In kind it is functional.
Assay [18] can be described thus: P. falciparum Dd2 growth inhibitors, dose response, SYBR Green, cherry-picked samples (AID 1159567). In kind it is functional, cell-based.
Assay [19] is described as follows: Dd2 malaria parasite growth inhibition potency – SYBR Green, dry powder samples, dose response (AID 1159566).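 Further: potency for growth inhibition with lower SYBR green DNA signal.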 In kind it is functional, cell-based.
Assay [20] is described as follows: toxicity to human hepatoma HepG2 cells – cell-based, cherry-picked samples, cytotoxicity control, dose response (AID 1159577). Format: functional.
Assay [21] in a line: Plasmodium falciparum Dd2 Sybr green parasite growth Measured in Cell-Based and Microorganism Combination System Using Plate Reader - 2153-01_Inhibitor_Dose_DryPowder_Activity_Set3. Format: functional.
A short description of assay [22]: growth inhibition of PfATP4-mutant resistant parasites – NITD609-resistant line, SYBR Green, dry powder, dose response (AID 1159571).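 Further: parasites synchronized at ring stage by sorbitol before testing.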 In kind it is functional, cell-based.

Sequence of DNA (cytosine-5)-methyltransferase 1 (P26358 whole entry): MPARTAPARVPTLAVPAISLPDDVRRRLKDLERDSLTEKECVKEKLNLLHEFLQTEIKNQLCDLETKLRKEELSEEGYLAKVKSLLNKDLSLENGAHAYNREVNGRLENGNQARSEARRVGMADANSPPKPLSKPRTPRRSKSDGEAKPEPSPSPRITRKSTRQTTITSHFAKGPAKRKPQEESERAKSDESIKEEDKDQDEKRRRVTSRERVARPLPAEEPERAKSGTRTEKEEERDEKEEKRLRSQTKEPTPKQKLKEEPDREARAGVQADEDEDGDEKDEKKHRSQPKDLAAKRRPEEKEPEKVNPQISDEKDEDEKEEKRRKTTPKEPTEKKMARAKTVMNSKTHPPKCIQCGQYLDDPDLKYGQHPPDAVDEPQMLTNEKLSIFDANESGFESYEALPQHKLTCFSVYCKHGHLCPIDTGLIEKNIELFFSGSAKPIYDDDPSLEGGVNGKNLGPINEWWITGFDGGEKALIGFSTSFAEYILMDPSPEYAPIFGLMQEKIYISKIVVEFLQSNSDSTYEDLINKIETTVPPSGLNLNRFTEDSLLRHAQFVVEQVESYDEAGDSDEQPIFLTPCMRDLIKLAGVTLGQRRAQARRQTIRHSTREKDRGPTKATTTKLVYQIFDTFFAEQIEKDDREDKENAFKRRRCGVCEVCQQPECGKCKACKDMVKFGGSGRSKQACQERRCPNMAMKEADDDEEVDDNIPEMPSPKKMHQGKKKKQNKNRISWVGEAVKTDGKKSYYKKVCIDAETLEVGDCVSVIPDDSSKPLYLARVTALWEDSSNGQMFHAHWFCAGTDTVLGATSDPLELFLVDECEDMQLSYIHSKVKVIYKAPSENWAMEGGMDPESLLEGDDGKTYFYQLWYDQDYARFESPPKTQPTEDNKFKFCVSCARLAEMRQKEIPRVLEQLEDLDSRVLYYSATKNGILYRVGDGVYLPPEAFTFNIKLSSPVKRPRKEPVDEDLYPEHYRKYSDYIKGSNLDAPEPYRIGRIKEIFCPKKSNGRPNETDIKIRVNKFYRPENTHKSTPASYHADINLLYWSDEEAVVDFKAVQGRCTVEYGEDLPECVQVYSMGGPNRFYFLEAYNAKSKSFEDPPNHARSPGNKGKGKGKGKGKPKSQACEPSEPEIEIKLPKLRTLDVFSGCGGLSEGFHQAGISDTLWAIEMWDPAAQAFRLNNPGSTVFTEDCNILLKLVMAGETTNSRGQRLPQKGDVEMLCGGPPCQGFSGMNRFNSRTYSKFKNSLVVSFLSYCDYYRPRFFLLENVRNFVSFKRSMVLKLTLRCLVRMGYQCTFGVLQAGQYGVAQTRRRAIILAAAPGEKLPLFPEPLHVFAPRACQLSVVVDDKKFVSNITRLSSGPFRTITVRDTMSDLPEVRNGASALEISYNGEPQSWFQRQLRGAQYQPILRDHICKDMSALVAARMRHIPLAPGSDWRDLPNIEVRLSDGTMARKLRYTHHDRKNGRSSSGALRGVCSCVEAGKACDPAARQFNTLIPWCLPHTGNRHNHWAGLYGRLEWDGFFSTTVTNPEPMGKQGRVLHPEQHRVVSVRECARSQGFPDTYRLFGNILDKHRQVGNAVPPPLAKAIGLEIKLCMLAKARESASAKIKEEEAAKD
Sequence of Glutathione-S-transferase (Q26513 whole entry): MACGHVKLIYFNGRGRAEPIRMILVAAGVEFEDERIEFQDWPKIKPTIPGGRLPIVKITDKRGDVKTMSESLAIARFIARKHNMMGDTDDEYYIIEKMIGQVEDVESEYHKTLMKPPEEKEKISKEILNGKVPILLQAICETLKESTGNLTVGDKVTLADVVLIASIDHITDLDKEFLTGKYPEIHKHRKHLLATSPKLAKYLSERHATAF
Sequence of Induced myeloid leukemia cell differentiation protein Mcl-1 (Q07820 whole entry): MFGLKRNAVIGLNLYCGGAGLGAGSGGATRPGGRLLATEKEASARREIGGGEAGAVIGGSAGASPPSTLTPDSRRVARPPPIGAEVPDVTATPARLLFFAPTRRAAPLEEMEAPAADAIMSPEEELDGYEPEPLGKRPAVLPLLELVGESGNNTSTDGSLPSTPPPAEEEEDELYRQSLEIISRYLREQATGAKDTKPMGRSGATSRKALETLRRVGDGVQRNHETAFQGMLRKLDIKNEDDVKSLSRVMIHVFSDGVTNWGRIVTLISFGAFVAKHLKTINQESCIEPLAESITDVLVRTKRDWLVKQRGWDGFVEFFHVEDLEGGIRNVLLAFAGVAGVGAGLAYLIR
Sequence of Bifunctional protein GlmU (P9WMN3 whole entry): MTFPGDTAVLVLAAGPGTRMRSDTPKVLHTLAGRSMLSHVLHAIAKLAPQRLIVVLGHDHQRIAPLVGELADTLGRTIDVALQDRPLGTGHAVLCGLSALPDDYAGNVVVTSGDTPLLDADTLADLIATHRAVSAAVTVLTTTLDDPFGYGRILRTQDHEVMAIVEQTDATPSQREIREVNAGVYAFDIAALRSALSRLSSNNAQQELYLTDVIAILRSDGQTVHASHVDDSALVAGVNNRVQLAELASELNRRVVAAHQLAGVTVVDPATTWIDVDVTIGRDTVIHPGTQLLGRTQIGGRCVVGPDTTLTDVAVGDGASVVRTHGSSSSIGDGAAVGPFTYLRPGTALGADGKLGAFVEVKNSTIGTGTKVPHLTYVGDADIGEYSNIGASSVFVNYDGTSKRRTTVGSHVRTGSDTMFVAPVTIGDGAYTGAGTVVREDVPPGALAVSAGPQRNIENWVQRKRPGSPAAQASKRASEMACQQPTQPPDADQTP
Sequence of Nonstructural protein 1 (Q194T2 whole entry): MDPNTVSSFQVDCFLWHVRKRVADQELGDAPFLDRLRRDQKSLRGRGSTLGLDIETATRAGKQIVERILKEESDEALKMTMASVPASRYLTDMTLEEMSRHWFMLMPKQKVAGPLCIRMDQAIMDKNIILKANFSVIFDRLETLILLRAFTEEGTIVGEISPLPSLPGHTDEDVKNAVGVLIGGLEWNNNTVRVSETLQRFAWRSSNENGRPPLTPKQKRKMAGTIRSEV
Sequence of 26S proteasome non-ATPase regulatory subunit 14 (O00487 whole entry): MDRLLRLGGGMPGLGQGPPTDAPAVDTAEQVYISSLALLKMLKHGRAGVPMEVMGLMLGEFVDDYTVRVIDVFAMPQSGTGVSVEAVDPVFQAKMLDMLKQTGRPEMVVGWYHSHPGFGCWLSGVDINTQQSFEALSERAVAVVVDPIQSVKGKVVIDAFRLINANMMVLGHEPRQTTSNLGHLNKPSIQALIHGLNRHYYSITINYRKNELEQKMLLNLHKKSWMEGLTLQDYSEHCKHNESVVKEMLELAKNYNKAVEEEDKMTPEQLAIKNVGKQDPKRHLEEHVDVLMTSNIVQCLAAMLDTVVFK
Sequence of RNA-editing ligase 1, mitochondrial (P86926 whole entry): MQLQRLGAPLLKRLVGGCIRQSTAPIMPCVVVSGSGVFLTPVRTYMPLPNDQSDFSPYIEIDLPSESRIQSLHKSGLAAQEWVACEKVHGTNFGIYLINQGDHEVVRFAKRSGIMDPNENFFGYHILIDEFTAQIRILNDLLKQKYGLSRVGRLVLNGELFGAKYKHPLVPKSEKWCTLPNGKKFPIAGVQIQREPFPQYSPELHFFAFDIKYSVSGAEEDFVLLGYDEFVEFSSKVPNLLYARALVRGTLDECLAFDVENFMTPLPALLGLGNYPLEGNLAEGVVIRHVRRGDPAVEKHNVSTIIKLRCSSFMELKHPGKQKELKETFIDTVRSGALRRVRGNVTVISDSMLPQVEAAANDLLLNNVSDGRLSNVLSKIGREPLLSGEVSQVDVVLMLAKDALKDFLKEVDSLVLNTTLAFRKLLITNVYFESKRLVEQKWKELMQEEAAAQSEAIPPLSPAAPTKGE
Sequence of 72 kDa type IV collagenase (P08253 whole entry): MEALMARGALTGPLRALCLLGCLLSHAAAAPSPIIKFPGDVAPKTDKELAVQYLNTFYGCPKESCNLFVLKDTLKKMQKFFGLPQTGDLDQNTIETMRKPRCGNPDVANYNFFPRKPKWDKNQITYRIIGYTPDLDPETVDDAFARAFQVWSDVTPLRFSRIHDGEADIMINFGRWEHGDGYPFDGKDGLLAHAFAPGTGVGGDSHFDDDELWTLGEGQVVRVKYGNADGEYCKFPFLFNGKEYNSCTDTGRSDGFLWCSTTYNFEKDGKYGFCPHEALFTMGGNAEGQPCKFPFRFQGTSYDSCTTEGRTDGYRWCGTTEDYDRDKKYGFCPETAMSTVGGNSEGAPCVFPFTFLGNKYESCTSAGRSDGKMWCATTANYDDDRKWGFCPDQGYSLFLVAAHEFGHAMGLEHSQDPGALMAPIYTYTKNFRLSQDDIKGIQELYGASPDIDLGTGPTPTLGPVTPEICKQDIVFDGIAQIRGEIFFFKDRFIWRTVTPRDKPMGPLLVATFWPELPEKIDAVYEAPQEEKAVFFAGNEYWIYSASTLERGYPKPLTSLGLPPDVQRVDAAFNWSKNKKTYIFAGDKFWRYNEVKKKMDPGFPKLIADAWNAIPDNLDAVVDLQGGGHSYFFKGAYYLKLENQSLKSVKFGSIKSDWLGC

Consider `CCS(=O)(=O)C1=NN2C(=N)/C(=C\c3ccc(SCc4ccco4)o3)C(=O)N=C2S1`, for which the IC50 is 24.2 µM (active) at Aminopeptidase N; 49.4 µM (active) in [1]; 3.96 µM (active) in [2]; 5.71 µM (active) in [3]; 12 µM (active) in [4]; 4.49 µM (active) in [5]. Besides, the results for the IC50 (at Prothrombin; in [6]) were 28.5 µM (active) and 132 µM (active), respectively. Further, the AC50 in assay [7] was 7.62 µM (active).

`CN(C)c1ccc(/N=C/C=C2/N(C)c3ccccc3C2(C)C)cc1`: the values for the EC50 in [8], in [9] and in assay [10] were 39 µM (active), 39 µM (active) and > 100 µM (active), respectively. In addition, the IC50 is 16.1 µM (active) at Nonstructural protein 1, 20.6 µM (active) in assay [6] and 44.9 µM (active) in assay [13]. In addition, the CC50 in [11] was 100 µM (active); in assay [12], 17.5 µM (active).

`CCOC(=O)C(/C=N/c1cc(C)nn1-c1ccccc1)=C(/O)OCC`: the IC50 in assay [14] was 6.37 µM (active).

`COC(=O)C1=C(C)N(Cc2ccccc2C(F)(F)F)C(NCc2ccc(C(F)(F)F)cc2)=NC1c1ccccc1` (stereo unspecified): the IC50 in [15] was > 96.6 µM (inactive).

Consider `N#C[C@@H]1[C@H](c2ccc(C3=CCCCC3)cc2)[C@@H](CO)N1C(=O)NC1CCCC1`, for which the AC50 was 9.32 µM (active) in [16]; 62.5 µM (active) in assay [17]; 0.42 µM (active) in assay [18]; 0.409 µM (active) in assay [19]; > 39 µM (inactive) in [20]; 0.399 µM (active) in assay [21]. For the same compound, the AC50 in assay [22] was 0.549 µM (active).
